{"source": "paper PMC12597212", "about": "“Biaryl Phosphate‐Based Inhibitors of the Transcription Factor STAT4” (Chemmedchem, 2025)", "key": {"STAT1 [1]": {"target": "T1, STAT1 (Homo sapiens, UniProt P42224)", "T1 sequence (P42224 1-750)": "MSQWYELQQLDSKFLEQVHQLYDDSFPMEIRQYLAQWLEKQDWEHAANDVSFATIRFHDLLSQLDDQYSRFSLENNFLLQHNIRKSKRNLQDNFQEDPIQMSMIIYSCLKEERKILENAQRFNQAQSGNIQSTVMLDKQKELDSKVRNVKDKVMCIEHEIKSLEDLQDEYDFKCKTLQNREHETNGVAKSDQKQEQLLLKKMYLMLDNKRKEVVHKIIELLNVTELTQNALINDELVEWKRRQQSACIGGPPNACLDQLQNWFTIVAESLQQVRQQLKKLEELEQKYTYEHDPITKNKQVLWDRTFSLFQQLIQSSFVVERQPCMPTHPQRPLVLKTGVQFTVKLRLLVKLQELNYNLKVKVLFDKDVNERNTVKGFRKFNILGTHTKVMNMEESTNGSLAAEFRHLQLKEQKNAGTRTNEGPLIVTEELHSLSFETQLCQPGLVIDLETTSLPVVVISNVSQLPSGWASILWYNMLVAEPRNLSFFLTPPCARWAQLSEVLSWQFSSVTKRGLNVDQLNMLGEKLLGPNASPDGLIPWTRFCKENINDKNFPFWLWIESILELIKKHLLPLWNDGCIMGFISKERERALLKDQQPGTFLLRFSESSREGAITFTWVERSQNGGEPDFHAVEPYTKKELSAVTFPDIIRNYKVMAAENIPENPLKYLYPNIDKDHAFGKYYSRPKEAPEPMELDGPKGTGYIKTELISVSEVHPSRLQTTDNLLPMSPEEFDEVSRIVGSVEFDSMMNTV", "conditions": "FP assay; data taken from the literature, ref [1] of the Supporting Information; cited from earlier work"}, "STAT4 SH2 domain [2]": {"target": "T2, STAT4 SH2 domain (Homo sapiens, UniProt Q14765)", "T2 sequence (Q14765 1-748)": "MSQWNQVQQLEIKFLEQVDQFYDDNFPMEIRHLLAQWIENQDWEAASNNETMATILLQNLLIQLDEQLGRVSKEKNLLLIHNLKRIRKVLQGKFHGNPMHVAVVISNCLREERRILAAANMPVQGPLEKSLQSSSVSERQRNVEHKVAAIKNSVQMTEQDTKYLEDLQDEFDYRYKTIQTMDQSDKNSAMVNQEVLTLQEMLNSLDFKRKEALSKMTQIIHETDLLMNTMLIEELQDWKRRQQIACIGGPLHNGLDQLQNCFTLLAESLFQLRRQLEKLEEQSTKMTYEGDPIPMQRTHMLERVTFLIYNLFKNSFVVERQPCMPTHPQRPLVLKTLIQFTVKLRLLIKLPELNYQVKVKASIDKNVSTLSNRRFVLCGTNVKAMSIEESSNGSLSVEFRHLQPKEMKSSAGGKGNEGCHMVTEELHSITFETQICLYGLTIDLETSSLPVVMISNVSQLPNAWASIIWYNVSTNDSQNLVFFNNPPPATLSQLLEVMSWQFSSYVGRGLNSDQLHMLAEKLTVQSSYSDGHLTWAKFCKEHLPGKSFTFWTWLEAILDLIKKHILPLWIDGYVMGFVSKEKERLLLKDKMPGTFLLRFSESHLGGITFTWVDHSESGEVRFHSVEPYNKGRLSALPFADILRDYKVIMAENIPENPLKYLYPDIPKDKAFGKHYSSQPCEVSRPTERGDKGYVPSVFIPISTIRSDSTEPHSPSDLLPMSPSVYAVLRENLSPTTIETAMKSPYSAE", "conditions": "FP assay; data taken from the literature, ref [1] of the Supporting Information; cited from earlier work"}, "STAT4 SH2 domain [3]": {"target": "T2, STAT4 SH2 domain", "experiment": "Competitive fluorescence polarization (FP) assay, STAT4", "type": "binding", "conditions": "for IC50: 28 nM STAT4, 10 nM tracer peptide; for Ki: Ki calculated from IC50, mean ± SD, n = 3", "procedure": "(§1) Fluorescence polarization assays\nCompetitive fluorescence polarization assays were carried as previously described.[1] Proteins […]\nfluorescent-labeled peptides were used as tracers: 5-carboxyfluorescein-GpYLPQNID-OH for STAT4; 5-carboxyfluorescein-GpYDKPHVL for STAT1; 5-carboxyfluorescein-GpYLPQTV-NH2 for STAT3; 5-carboxyfluorescein-GpYLVLDKW for STAT5a/b, and 5-carboxyfluorescein- […]\nmM Tris (pH 8.0), 50 mM NaCl, 1 mM EDTA, 1 mM DTT, 0.1 % Nonidet P-40 substitute, 2 %\nDMSO. Proteins and test compound were incubated for 1 h at room temperature before the […]\n(1 picture or pasted object on this page, not shown here) […]\nfluorescent-labeled peptide was added. Samples were transferred to 384-well microtiter plates and fluorescence polarization was read after an additional 60 min of incubation time.\nExperiments were carried out in triplicate. Percent binding was calculated based on a logarithmic curve fit using OriginPro 8G software. Conversion of IC50 values to Ki-values was achieved using the published equation[2] embedded in the corresponding Excel spread sheet […]\nhttps://websites.umich.edu/~shaomengwanglab/software/calc_ki/ind ex.html.\n(§2) Error bars represent standard deviations. […]\n(§3) Experiments were carried out in triplicate. […]"}, "STAT5a": {"target": "T3, STAT5a (Homo sapiens, UniProt P42229)", "T3 sequence (P42229 1-794)": "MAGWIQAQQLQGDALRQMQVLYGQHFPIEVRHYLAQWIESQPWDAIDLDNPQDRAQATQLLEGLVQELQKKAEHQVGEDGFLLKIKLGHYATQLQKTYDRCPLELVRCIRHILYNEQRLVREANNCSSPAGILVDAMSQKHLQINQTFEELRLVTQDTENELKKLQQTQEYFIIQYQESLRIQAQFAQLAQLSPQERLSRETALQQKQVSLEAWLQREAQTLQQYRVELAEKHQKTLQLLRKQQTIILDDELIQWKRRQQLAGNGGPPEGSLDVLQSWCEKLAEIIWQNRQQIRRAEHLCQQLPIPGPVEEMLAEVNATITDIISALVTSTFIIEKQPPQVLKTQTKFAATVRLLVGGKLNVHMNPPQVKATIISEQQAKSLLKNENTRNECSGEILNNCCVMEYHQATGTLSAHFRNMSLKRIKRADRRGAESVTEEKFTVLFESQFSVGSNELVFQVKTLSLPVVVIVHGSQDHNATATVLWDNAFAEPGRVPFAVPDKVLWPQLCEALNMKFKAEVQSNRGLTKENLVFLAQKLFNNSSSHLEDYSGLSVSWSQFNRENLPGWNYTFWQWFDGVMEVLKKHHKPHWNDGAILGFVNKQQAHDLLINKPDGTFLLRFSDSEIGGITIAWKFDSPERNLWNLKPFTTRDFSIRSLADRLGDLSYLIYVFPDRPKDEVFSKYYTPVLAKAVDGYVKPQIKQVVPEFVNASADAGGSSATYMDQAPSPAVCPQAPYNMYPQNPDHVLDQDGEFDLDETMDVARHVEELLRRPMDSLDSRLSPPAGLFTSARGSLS", "experiment": "Competitive fluorescence polarization (FP) assay, STAT5a", "type": "binding", "procedure": "as §1\n(§4) STAT4; 5-carboxyfluorescein-GpYDKPHVL for STAT1; 5-carboxyfluorescein-GpYLPQTV- […]\n(§5) fluorescent-labeled peptide was added. Samples were transferred to 384-well microtiter plates […]\n(§6) Experiments were carried out in triplicate. Percent binding was calculated based on a logarithmic curve fit using OriginPro 8G software. Conversion of IC50 values to Ki-values was […]\nas §2, §3"}, "STAT6": {"target": "T4, STAT6 (Homo sapiens, UniProt P42226)", "T4 sequence (P42226 1-847)": "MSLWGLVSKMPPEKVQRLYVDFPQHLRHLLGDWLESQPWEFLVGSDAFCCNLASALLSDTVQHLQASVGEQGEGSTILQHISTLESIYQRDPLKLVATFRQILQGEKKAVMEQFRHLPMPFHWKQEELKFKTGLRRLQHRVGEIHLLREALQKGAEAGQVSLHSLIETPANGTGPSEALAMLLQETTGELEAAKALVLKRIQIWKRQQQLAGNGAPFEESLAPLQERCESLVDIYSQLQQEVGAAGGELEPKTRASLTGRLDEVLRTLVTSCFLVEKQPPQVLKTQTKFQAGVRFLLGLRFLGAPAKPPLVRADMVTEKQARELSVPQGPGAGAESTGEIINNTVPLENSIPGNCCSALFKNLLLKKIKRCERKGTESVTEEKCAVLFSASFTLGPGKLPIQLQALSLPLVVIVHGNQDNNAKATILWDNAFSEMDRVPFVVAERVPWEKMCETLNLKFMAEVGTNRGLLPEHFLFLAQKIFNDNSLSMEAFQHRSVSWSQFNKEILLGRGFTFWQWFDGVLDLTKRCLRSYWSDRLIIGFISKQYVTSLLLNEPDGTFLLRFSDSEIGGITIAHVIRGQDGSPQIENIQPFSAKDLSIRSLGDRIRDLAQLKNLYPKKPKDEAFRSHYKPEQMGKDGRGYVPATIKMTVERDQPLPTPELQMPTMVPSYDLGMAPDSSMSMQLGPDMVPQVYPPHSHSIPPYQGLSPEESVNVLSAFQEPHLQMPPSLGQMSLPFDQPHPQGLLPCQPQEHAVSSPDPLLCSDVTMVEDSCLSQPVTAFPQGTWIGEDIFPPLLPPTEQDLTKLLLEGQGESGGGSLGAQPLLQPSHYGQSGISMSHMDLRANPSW", "experiment": "Competitive fluorescence polarization (FP) assay, STAT6", "type": "binding", "procedure": "as §1, §4, §5, §6, §2, §3"}, "STAT5b": {"target": "T5, STAT5b (Homo sapiens, UniProt P51692)", "T5 sequence (P51692 1-787)": "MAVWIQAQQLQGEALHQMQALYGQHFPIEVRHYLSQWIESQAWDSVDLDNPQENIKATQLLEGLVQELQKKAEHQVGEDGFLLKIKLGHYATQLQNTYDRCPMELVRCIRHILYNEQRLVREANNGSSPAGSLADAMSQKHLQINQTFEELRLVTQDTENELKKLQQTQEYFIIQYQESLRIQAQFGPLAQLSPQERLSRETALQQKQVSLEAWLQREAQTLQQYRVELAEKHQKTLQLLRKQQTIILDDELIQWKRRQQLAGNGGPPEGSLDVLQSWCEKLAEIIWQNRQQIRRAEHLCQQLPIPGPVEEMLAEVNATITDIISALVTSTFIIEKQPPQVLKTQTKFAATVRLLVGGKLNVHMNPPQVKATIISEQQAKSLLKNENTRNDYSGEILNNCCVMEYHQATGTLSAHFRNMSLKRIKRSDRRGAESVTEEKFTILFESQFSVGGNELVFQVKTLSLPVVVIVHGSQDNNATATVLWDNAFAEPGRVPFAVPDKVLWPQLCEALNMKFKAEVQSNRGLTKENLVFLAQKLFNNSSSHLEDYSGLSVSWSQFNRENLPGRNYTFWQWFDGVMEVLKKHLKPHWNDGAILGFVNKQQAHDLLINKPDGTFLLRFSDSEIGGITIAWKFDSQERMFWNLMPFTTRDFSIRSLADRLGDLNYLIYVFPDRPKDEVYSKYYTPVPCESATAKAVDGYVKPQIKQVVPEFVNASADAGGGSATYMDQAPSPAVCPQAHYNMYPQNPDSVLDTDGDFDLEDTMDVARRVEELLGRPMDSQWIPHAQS", "experiment": "Competitive fluorescence polarization (FP) assay, STAT5b", "type": "binding", "procedure": "as §1, §4, §5, §6, §2, §3"}, "STAT1 [4]": {"target": "T1, STAT1", "experiment": "Competitive fluorescence polarization (FP) assay, STAT1", "type": "binding", "procedure": "as §1, §4, §5, §6, §2, §3"}, "[5]": {"conditions": "Ki calculated from IC50, mean ± SD, n = 3"}}, "note": "Like-named read-outs stand apart in the source and are kept apart here."}
{"smiles": "O=P(O)(O)Oc1ccc(-c2ccccc2)cc1F", "note": "[compound 13]", "values": [{"measurement": "IC50", "setting": "STAT1 [1]", "value": 12.8, "unit": "µM"}, {"measurement": "IC50", "setting": "STAT4 SH2 domain [2]", "value": 1.21, "unit": "µM"}]}
{"smiles": "O=P(O)(O)Oc1ccc(-c2cccs2)cc1F", "note": "[8e]", "values": [{"measurement": "IC50", "setting": "STAT4 SH2 domain [3]", "value": 0.6, "unit": "µM"}, {"measurement": "Ki", "setting": "STAT4 SH2 domain [3]", "value": "0.3 ± 0.003", "unit": "µM"}]}
{"smiles": "O=P(O)(O)Oc1ccc(-c2ccsc2)cc1F", "note": "[8d]", "values": [{"measurement": "IC50", "setting": "STAT4 SH2 domain [3]", "value": 0.52, "unit": "µM"}, {"measurement": "Ki", "setting": "STAT4 SH2 domain [3]", "value": "0.26 ± 0.02", "unit": "µM"}]}
{"smiles": "O=P(O)(O)Oc1ccc(-c2cccc3ccccc23)cc1", "note": "[compound 10]", "values": [{"measurement": "IC50", "setting": "STAT5a; 125-177 nM STAT5a, 10 nM tracer peptide", "value": 8.1, "unit": "µM"}, {"measurement": "Ki", "setting": "STAT5a; [5]", "value": "4 ± 0.3", "unit": "µM"}, {"measurement": "IC50", "setting": "STAT6; 106 nM STAT6, 10 nM tracer peptide", "value": 19.1, "unit": "µM"}, {"measurement": "Ki", "setting": "STAT6; [5]", "value": "9.4 ± 1.9", "unit": "µM"}, {"measurement": "IC50", "setting": "STAT5b; 59-85 nM STAT5b, 10 nM tracer peptide", "value": 89, "unit": "µM"}, {"measurement": "Ki", "setting": "STAT5b; [5]", "value": "43 ± 4", "unit": "µM"}, {"measurement": "IC50", "setting": "STAT1 [4]; 80-92 nM STAT1, 10 nM tracer peptide", "value": 38, "unit": "µM"}, {"measurement": "Ki", "setting": "STAT1 [4]; [5]", "value": "17 ± 1", "unit": "µM"}]}
{"smiles": "O=P(O)(O)Oc1ccc(-c2ccccc2)cc1", "note": "[compound 1, p‐biphenyl phosphate]", "values": [{"measurement": "IC50", "setting": "STAT1 [1]", "value": 16.4, "unit": "µM"}]}
